Experimental data published in patent publication US10160972B2, “Methods and materials for treating cancer” (Mayo Foundation for Medical Education and Research, priority 2012, dated 2018).
pIC50: −log10 of the molar value.

How the values were obtained:
A498 ccRCC cell line = conditions: read-out: IC50, decrease in proliferation; A498, day 5
Method: (§1) ccRCC cell lines: RWV366T and KIJ265T (16) (both stage IV ccRCC patient tissue derived), A498, Caki1, Caki2, and ACHN (ATCC) and K347N, K355N, K359N, K360N, K365N, and K366N normal renal tissue derived mortal cells (NRE) were cultured in DMEM medium (Cellgro) containing 5% FBS (Hyclone) and 1× penicillin-streptomycin (Invitrogen) at 37° C. in humidified conditions with 5% CO2.
(§2) Cells were plated (0.5 or 1×10^5/well) in 24-well plates for proliferation or treatment assays, in triplicate. Cells were trypsinized (0.25%) and counted using a Coulter Particle Counter at specified time intervals. For SCD1 rescue assays, oleic acid-albumin was added to media at 5 μM. Drug stocks were prepared in DMSO. […] Temsirolimus dosing was performed as described in the text. Soft agar cultures were prepared by diluting 2× growth medium 1:1 in 1.5% Seaplaque®GTG® agarose, with 500 cells/plate in 60 mm culture dishes. Colonies were stained with Giemsa (LabChem Inc.) and counted after 3 wks. Cell images were obtained with an OlympusIX71 microscope at 20× magnification.

ACHN ccRCC cell line = conditions: read-out: IC50, decrease in proliferation, day 5
Method: as §1, §2

Caki1 ccRCC cell line = conditions: read-out: IC50, decrease in proliferation; Caki1, day 5
Method: as §1, §2

Caki2 ccRCC cell line = conditions: read-out: IC50, decrease in proliferation; Caki2, day 5
Method: as §1, §2

[1] = system: Caki1, A498, Caki2, and ACHN ccRCC cell lines; assay: OA-BSA rescue of growth inhibition; format: cell-based, human; conditions: IC50 doses of A939572 + OA-BSA vs DMSO+BSA control, all four cell lines
Method: Drug stocks were prepared in DMSO. Monotherapeutic treatment identified drug dose-response. […] Temsirolimus dosing was performed as described in the text.

[2] = system: Caki1, A498, Caki2, and ACHN ccRCC cell lines; assay: PARP cleavage western blot (apoptosis); format: cell-based, human
Method: (§3) Protein extracts, electrophoresis, and membrane transfers were prepared as previously described (Copland J A, Marlow L A, Kurakata S, Fujiwara K, Wong A K, Kreinest P A, et al. Novel highaffinity PPARgamma agonist alone and in combination with paclitaxel inhibits human anaplastic thyroid carcinoma tumor growth via p21WAF1/CIP1. Oncogene. 2006; 25:2304-17). Primary antibodies included SCD1, PARP, DDIT3, BiP, sXBP1, and β-actin. A Supersignal chemiluminescent kit was used to perform detection.

Caki1 and A498 cells = assay: Western blot of ER stress markers; format: cell-based, human; conditions: 75 nM drug or shSCD780 knockdown, 48 hours
Method: as §3

MiaPaca cells = assay: Cell number growth inhibition assay; format: cell-based, human; conditions: cell number as percent of DMSO control
Method: (§4) A number of cancer cell lines were tested to determine whether SCD1 protein expression correlates with growth inhibition of an SCD1 inhibitor in human cancer cell lines.
(§5) Cells (20,000/ml) were plated in 12 well cell culture plates, allowed to attach and treated with the indicated dose of SCD1 inhibitor ([…]) or standard of care (gemcitabine). Cell number was counted using a Coulter Counter. As show in FIG. 7, the data are expressed as percent of DMSO control. Each value represents triplicates. Western analysis for SCD1 protein expression was performed on each cell line with beta-actin as the loading control.

Panc cells = assay: Cell number growth inhibition assay; format: cell-based, human
Method: as §4, §5

[3] = system: ATF6 luciferase reporter in Caki1 cells
Method: (§6) For transient transfection, Caki1 and A498 cells were transfected using Lipofectamine 2000. Cells treated with DMSO vs. A939572 or infected using shSCD780 lentiviral constructs vs. NT control were harvested after 48 hrs using Promega's Dual Luciferase assay kit per the manufacturer's protocol and luciferase activity was measured using a Veritas Luminometer; reported as relative luminescence.
(§7) Caki1 and A498 cells transfected with an ATF6 luciferase reporter (p5xATF6-GL3) were treated with a 75 nM dose of A939572 or were infected with shSCD780. Resulting luminescence was measured after 48 hours.

[4] = system: ATF6 luciferase reporter in A498 cells
Method: as §6, §7

CNC(=O)c1cccc(NC(=O)N2CCC(Oc3ccccc3Cl)CC2)c1 [A939572]
pIC50 (A498 ccRCC cell line): 7.30
pIC50 (ACHN ccRCC cell line): 8.22
pIC50 (Caki1 ccRCC cell line): 7.19
pIC50 (Caki2 ccRCC cell line): 7.19
growth inhibition with addition of OA-BSA [1]: prevented A939572 mediated growth inhibition
apoptosis by PARP cleavage with addition of OA-BSA ([2]; A939572 + OA-BSA): blocked apoptosis
apoptosis by PARP cleavage ([2]; western blot, all four cell lines): induced apoptosis
protein expression of ER stress markers BiP, CHOP, spliced-XBP1 (Caki1 and A498 cells): amplified expression
growth inhibition (MiaPaca cells): growth inhibited in a dose dependent fashion
growth inhibition (Panc cells): growth inhibited at only high levels
reporter activation with addition of OA-BSA ([3]; Caki1, + OA-BSA): significantly reduced reporter activation
luciferase activity, fold change induction ([3]; Caki1, +BSA, 75 nM A939572 or shSCD780, 48 hours, vs DMSO and NT controls): 1.6 fold change
reporter activation with addition of OA-BSA ([4]; A498, + OA-BSA): significantly reduced reporter activation
luciferase activity, fold change induction ([4]; A498, +BSA, 75 nM A939572 or shSCD780, 48 hours, vs DMSO and NT controls): 3.8 fold change
